The target of this test is CYPIIIA4 (Homo sapiens, UniProt P08684). Put plainly: in vitro inhibition of CYPIIIA4. It counts as in vitro ADME.
Chain of CYPIIIA4 (P08684 whole entry): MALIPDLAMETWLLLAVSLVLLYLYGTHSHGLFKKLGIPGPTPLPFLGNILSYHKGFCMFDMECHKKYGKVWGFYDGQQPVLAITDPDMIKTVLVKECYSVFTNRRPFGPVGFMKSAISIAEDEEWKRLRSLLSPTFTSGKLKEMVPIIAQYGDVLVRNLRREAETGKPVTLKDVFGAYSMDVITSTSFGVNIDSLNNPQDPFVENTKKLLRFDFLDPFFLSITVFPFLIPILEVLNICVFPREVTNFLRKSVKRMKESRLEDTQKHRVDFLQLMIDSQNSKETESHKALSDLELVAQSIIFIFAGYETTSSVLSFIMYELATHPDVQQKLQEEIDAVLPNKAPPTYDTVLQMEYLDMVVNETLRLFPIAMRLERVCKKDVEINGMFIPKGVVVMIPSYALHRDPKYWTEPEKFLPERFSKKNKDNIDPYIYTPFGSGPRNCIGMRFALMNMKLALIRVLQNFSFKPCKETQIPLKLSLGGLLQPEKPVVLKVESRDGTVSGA

Compound `CC(C)(C)NC(=O)[C@@H]1CN(Cc2cc3ccccc3o2)CCN1C[C@@H](O)C[C@@H](Cc1ccccc1)C(=O)N[C@H]1c2ccccc2C[C@H]1O` [Compound A, N-(2(R)-hydroxy-1(S)-indanyl)-2(R)-phenylmethyl-4-(S)-hydroxy-5-(1-(4-(2-benzo[b]furanylmethyl)-2(S)-N'-(t-butylcarboxamido)-piperazinyl))-pentaneamide] registered an IC50 of 30 µM.

By IC50 is commonly meant the point on the concentration scale where inhibition reaches its midpoint. A lower IC50 goes with higher potency.

Source of the values: patent publication EP1044000B1, “COMBINATION THERAPY FOR THE TREATMENT OF AIDS” (MERCK & CO., INC., priority 1997, dated 1999).
